Test results: patent US6949528B1, “Compositions containing lysophosphatidic acids which inhibit apoptosis and uses thereof” (priority 1998, dated 2005)

Columns and labels:
Type in all cases: cell-based
[1] = test system: C3H/10T1/2 cells; experiment: Anti-apoptotic activity assay: serum deprivation of C3H/10T1/2 cells; conditions: for Maximum effect relative to 18:1 LPA: Toxic / lowest concentration at which cytotoxic effects were observed (column Concentration for Max Effect): C3H/10T1/2 cells; for lowest concentration at which cytotoxic effects were observed (column Concentration for Max Effect): compounds exhibiting toxicity; for Concentration for Max Effect / Maximum effect relative to 18:1 LPA / Emax: serum-deprived C3H/10T1/2 cells, 24 hours of treatment; for Emax: Mus musculus, read-out: Maximum effect relative to 18:1 LPA
Source text: In order to determine the […] of the claimed invention, the following method of analysis was used. The cell assay is described in detail in U.S. Pat. Nos. 5,637,486, 5,620,888, and 5,681,703, and Tomei et al. (1993) Proc Natl. Aci. 90:853-857. Briefly, mouse fibroblast C3H/10T1/2 cells (clone 8) were obtained from ATCC (Rockville, Md.) and were maintained in exponential growth phase in which the cell cycle is randomly distributed and no cells are arrested in G0, and in quiescence. Exponential growth phase was assured by seeding at 2000 cells per 1 ml (5 ml for 60 mm culture plate) five days prior to the beginning of the experiment. Assays were performed on cells only up to passage 15. At T=0, cultures were transferred to serum-free medium, as an appropriate stimulus, and seed extracts were added. Controls included 10^−7 and 5×10^−8 M 12-O-tetradecanoyl phorbol-13-acetate (TPA) to ensure the responsiveness of the cell culture. The samples were added to serum free medium and sterile filtered prior to addition to the cultures. Assays were performed in triplicate or quadruplicate. Analyses of the cell responses were made between 18 and 28 hours of serum deprivation. Two assays were performed on each cell culture plate consisting of differential cell counts.
1. All non-adherent or loosely adherent cells were removed from the culture dish and counted by appropriate techniques, typically counting by electronic particle counting instrument. These are the apoptotic cells, the serum deprived released cells (SDR), released by the action of cultivation in serum-free medium. Approximately 95% of these released cells are apoptotic as shown by both ultrastructure analysis and DNA fragmentation analysis.
2. The remaining adherent cells (ADH) were exposed to a buffered, typically pH 7.3, balanced salt solution such as a Hanks Balanced Salt Solution without calcium and magnesium salts containing 0.05% trypsin and 0.53 mM ethylene diaminetetraacetic acid (EDTA). Each culture was incubated at either room temperature or 37(C on a rocking platform to ensure uniform distribution of the trypsin reagent over the culture surface. After a standardized period of time, typically 10 minutes, the released cells were removed from each culture dish and measured by the same means as described above, typically electronic particle counting. This ADH cell count is comprised of both trypsin resistant and trypsin sensitive cells as described in U.S. Pat. Nos. 5,637,486, 5,620,888, and 5,681,703.
Anti-apoptotic activity is expressed in the following examples as the calculated concentration of material ((g/ml of media) required to save 50% of the cells released on serum free treatment.
The ability of 18:1-LPA an other LPAs to protect serum-starved cells from apoptotic death was measured using the C3H/10T1/2 cell assay, performed as described in Example 2. The effect of various compounds on the ability of lysophosphatidic acid to protect serum-starved cells from apoptotic death was also measured. Log phase cells were seeded in 60 mm Petri dishes at 175-350 cells per cm2 and maintained in Basal Medium Eagle (BME) supplemented with 10% Heat Inactivated Fetal Bovine Serum (HIFBS). On day 3 the cells were given fresh media. Treatment began on day 5 when the media containing serum was removed and replaced with the LPA mixture to be tested. After 24 hours of treatment, day 6, serum deprived released (SDR) cells (the […] cell population) and adherent (ADH) cells were separated and counted using an electronic cell counter (Coulter Corporation, Hialea, Fla.). […]

[2] = test system: rat neonatal cardiomyocytes; experiment: Cardiomyocyte death induced by serum/glucose deprivation; conditions: serum/glucose deprivation
Procedure: Cardiomyocytes were prepared from hearts of day-old Sprague Dawley rats by trypsinization and mechanical disaggregation (Simpson, (1985)) Circ. Res. 56:884-894. The cells were resuspended in MEM, 1×MEM vitamins (Gibco), 5% fetal bovine serum and 50 U/ml penicillin-G and pre-plated for 30 minutes to reduce contamination of non-myocytes. The non-adherent cardiac myocytes were separated and seeded in 2 ml in 35 mm dishes at a density of 3.5×10^5 viable cells per ml. The cells were allowed to adhere for 16-24 hours in a 37° C./5% CO2 humidified incubator.
For serum deprivation, the medium was replaced with fresh serum-free RPMI, whereas serum/glucose deprivation was performed using glucose-free RPMI. The induction of cell death by adriamycin or C2-ceramide was accomplished by the addition of the agent prepared in serum-free RPMI. As a model of ischemia, cultures in serum and glucose free RPMI were placed in an airtight chamber and the latter was continuously perfused with oxygen-free gas overlay of 95% N2/5% CO2 for 8 hours at 37° C. To model reperfusion of the ischemic cells, 10% fetal bovine serum, 2 g/L of glucose were added and the cultures were returned to a normal oxygen gas overlay (37° C./5% CO2) in a humidified incubator for 16 hours.
T investigate effects of LPA, LPA plus other phospholipids, PEG or their mixtures on cell death, various combinations of these components were added to cells in serum free medium at the beginning of cytotoxic treatment.
Because cardiomyocytes are terminally differentiated non-dividing cells, viability was determined by measurement of the decrease in the relative number of adherent cells. […] Adherent cardiomyocytes were collected from culture dishes using 0.25% Trypsin/0.05% EDTA and counted on Coulter Counter ZM and Coulter Channelyzer 256.

[3] = test system: C3H/10T1/2 cells; experiment: Effect of proteins on anti-apoptotic activity of soy LPA, C3H/10T1/2 cell assay; conditions: for Protein +10 (g/mL Soy LPA, percent cells saved from apoptosis): 1:10 soy-LPA to protein (weight:weight); for Protein +10 (g/mL Soy LPA, percent cells saved from apoptosis) / Protein Alone (0.01%), percent cells saved from apoptosis: 24 hours serum deprivation; for Increase with LPA: difference protein + soy LPA minus protein alone; for Protein Alone (0.01%), percent cells saved from apoptosis: protein without LPA; for enhancement of the anti-apoptotic activity of soy-LPA (more than additive protection): soy-LPA added together with protein
Procedure: Soy derived LPA (soy-LPA) (Avanti® Polar Lipids, Inc., Alabaster, Ala.) was stored in an organic solution and was dried immediately prior to assay using a Speed Vac (Savant Instruments, Hicksville, N.Y.). Tested proteins were resuspended at 10_mg/mL in a bicarbonate buffered saline/EDTA solution (50_mM NH4HCO3, […] NaCl, 250_(M EDTA) prior to being added to dried soy-LPA at a 1:10_soy-LPA to protein (weight:weight) ratio. The mixture was then sonicated for 5 minutes using a high power 80 Watt sonication bath (Laboratory Supplies Co., Hicksville, N.Y.). Following sonication, concentrated LPA/protein mixtures were left standing for 15 minutes at room temperature prior to dilution in cell culture assay media.
The effect of various proteins on the ability of LPA to protect serum-starved cells from apoptotic death was measured using the C3H/10T1/2 cell assay, performed as described in Example 2, above. Log phase cells were seeded in 60 mm Petri dishes at 175-350 cells per cm^2 and maintained in Basal Medium Eagle (BME) supplemented with 10% fetal calf serum (Hyclone, Logan, Utah). At time zero, serum containing media was replaced with sterile filtered BME containing the LPA/protein mixture to be tested. After 24 hours of treatment, serum deprived release (SDR) cells (the apoptotic cell population) and adherent (ADH) cells were separated and counted using an electronic cell counter (Coulter Corporation, Hialea, Fla.). SDR cells were counted with the lower threshold setting at 6.3_(m and were defined as the apoptotic cells dying in response to cultivation in serum-free-media. Approximately 95% of the SDR cells are confirmed to be apoptotic as previously shown by size, ultrastructure and DNA fragmentation analysis. Adherent cells were removed by treatment with a Hanks' balanced salt solution containing 0.05% trypsin and 0.53_mM EDTA and were counted with the lower threshold setting at 11.01_(m. All samples were tested in triplicate and serum-deprived controls (BME only) were assayed at both the beginning and end of each experiment.

CCCCCCCCCCCCCCOCC(O)COP(=O)(OC)OC (racemic) [Compound 3, Dimethyl 3-O-tetradecyl-rac-glycero-1-phosphate]
Maximum effect relative to 18:1 LPA: Toxic [1]: Toxic | lowest concentration at which cytotoxic effects were observed (column Concentration for Max Effect) [1]: 30 µM

CCCCCCCCCCOCC(O)COP(=O)(O)O (racemic) [Compound 11, 3-O-Decyl-rac-glycero-1-phosphate]
Emax ([2]; Rattus norvegicus, Cardiomyocyte, read-out: Maximum effect relative to 18:1 LPA in cardiomyocytes): 100% | Concentration ranges for cardiomyocyte protection [2]: 1 to 10 µM

CCCCCCCC/C=C\CCCCCCCCOCC(COP(=O)(OC)OC)OC (racemic) [Compound 23, Dimethyl 1-O-oleyl-2-O-methyl-rac-glycero-1-phosphate]
Concentration for Max Effect [1]: 30 µM | Maximum effect relative to 18:1 LPA [1]: 17%

CCCCCCCC/C=C\CCCCCCCCOCC(COP(=O)(O)O)OC (racemic) [Compound 24, 3-O-Oleyl-2-O-methyl-rac-glycero-1-phosphate]
Emax [1]: 100% | Concentration for Max Effect [1]: 10 µM

CCCCCCCC/C=C\CCCCCCCC(=O)OCC(Br)COP(=O)(O)O (racemic) [Compound 37, 3-O-Oleoyl-2-deoxy-2-bromo-rac-glycero-1-phosphate]
Concentration for Max Effect [1]: 30 µM | Maximum effect relative to 18:1 LPA [1]: 75%

CCCCCCCC/C=C\CCCCCCCC(=O)OCC(COP(=O)(O)O)OC (racemic) [Compound 46, 3-O-Oleoyl-2-O-methyl-rac-glycero-1-phosphate]
Emax [1]: 75% | Concentration for Max Effect [1]: 30 µM

CCCCCCCC/C=C\CCCCCCCCOCC(COP(O)(=S)OCC(COCCCCCCCC/C=C\CCCCCCCC)OC)OC (racemic) [Compound 80, Bis(3-O-oleyl-2-O-methyl-rac-glyceryl)thiophosphate]
Concentration for Max Effect [1]: 3 µM | Maximum effect relative to 18:1 LPA [1]: 100%

CCCCCCCCCC(=O)OC[C@@H](O)COP(=O)(O)O [10:0 LPA, reference compound]
Concentration for Max Effect [1]: 30 µM | Maximum effect relative to 18:1 LPA [1]: 30%

CCCCCCCCCCCCCC(=O)OC[C@@H](O)COP(=O)(O)O [14:0 LPA, reference compound]
Concentration for Max Effect [1]: 30 µM | Maximum effect relative to 18:1 LPA [1]: 80%

CCCCCCCCCCCCCCCC(=O)OCC(O)COP(=O)(O)O (stereo not shown) [16:0 LPA, Palmitoyl-LPA, reference compound]
cells protected ([1]; 5 (M, FIG. 5), medium alone 30%): about 42% | cells protected ([1]; 15 (M, FIG. 5)): 63% | Concentration for Max Effect [1]: 10 µM | Maximum effect relative to 18:1 LPA [1]: 80%

CCCCCCCCCCCCCCOCC1CO1 (stereo not shown) [Compound 8, 1-O-Tetradecyl-glycidol]
Maximum effect relative to 18:1 LPA: Toxic [1]: Toxic | lowest concentration at which cytotoxic effects were observed (column Concentration for Max Effect) [1]: 30 µM

CCCCCCCC/C=C\CCCCCCCC(=O)NCCOP(=O)(OC)OC [Compound 59, Dimethyl 2-amino-2-N-oleoyl-ethylphopshate]
Maximum effect relative to 18:1 LPA: Toxic [1]: Toxic | lowest concentration at which cytotoxic effects were observed (column Concentration for Max Effect) [1]: 30 µM

CCCCCCCC/C=C\CCCCCCCC(=O)NC(C)COP(=O)(O)O (stereo not shown) [Compound 61, 2-Amino-2-N-oleoyl-propyl phosphate]
Concentration for Max Effect [1]: 30 µM | Maximum effect relative to 18:1 LPA [1]: 70%

CCCCCCCC/C=C\CCCCCCCCCCCCOP(=O)(O)O [Compound 71, Erucyl phosphate]
Concentration for Max Effect [1]: 100 µM | Maximum effect relative to 18:1 LPA [1]: 76%

CCCCCCCCCCCCCCCCCC(=O)OCC(O)COP(=O)(O)O (stereo not shown) [stearyl-LPA, reference compound]
cells protected ([1]; 5 (M, FIG. 6)): 63% | cells protected ([1]; 15 (M, FIG. 6)): 65%

Casein
Protein +10 (g/mL Soy LPA, percent cells saved from apoptosis) [3]: 84.3% | Increase with LPA [3]: +20.9% | Protein Alone (0.01%), percent cells saved from apoptosis [3]: 63.4% | enhancement of the anti-apoptotic activity of soy-LPA (more than additive protection) [3]: to a lesser degree

Dimethyl 3-amino-N-oleoyl-propylphosphate [Compound 53]
Maximum effect relative to 18:1 LPA: Toxic [1]: Toxic | lowest concentration at which cytotoxic effects were observed (column Concentration for Max Effect) [1]: 100 µM

Myelin Basic Protein
Protein +10 (g/mL Soy LPA, percent cells saved from apoptosis) [3]: 17.0% | Increase with LPA [3]: +0.2% | Protein Alone (0.01%), percent cells saved from apoptosis [3]: 16.8% | enhancement of the anti-apoptotic activity of soy-LPA (more than additive protection) [3]: did not enhance

Phosphatidylserine [Phosphatidylserine (PS)]
toxicity of lipid alone ([1]; PS alone, FIG. 2): slightly toxic

lysophosphatidyl serine [LPS, reference compound]
activity relative to 18:1-LPA ([1]; on a molar basis, FIG. 4): approximately 50%

phosphatidyl choline [PC]
cells survived ([1]; lipids alone added to culture medium, FIG. 3): about 25%

B1: Myoglobin: myoglobin from horse heart (protein, UniProt P68082 2-154, looked up)
Myoglobin: GLSDGEWQQVLNVWGKVEADIAGHGQEVLIRLFTGHPETLEKFDKFKHLKTEAEMKASEDLKKHGTVVLTALGGILKKKGHHEAELKPLAQSHATKHKIPIKYLEFISDAIIHVLHSKHPGDFGADAQGAMTKALELFRNDIAAKYKELGFQG
Protein +10 (g/mL Soy LPA, percent cells saved from apoptosis) [3]: 27.8% | Increase with LPA [3]: +18.5% | Protein Alone (0.01%), percent cells saved from apoptosis [3]: 9.3% | enhancement of the anti-apoptotic activity of soy-LPA (more than additive protection) [3]: to a lesser degree
